From patent publication US20240122878A1 (priority 2021, published 2024)
Several values for one entry are separate records, joined by “and”; a condition that tells them apart may be missing. Identical values can stand only once. Counter-ions that a name gives are not always drawn.

Assays:
hERG = hERG (Homo sapiens, UniProt Q12809); test: Non GLP hERG channel current study (manual patch); type: cell-based; settings: human
Method: (§1) The objective of this study was to examine the in vitro effects of three test articles on the hERG (human ether-a-go-go-related gene) channel current (a surrogate for the rapidly activating delayed rectifier cardiac potassium current, IKr). The concentration-response relationship was evaluated at near-physiological temperature (35-37° C.

[1] = target: hERG (human ether-a-go-go-related gene) channel current (Homo sapiens, UniProt Q12809); test: Non GLP hERG channel current study (manual patch); type: cell-based; settings: for Hill coefficient: non GLP study
Method: as §1

in vitro [2] = settings: 37° C.; for half-life at 10 μM / half-life: simulated gi fluid; for half-life at 10 μM / Half-Life, Rep. 1-3 / half-life / Half-Life, Mean: 10 μM; for % Compound Remaining, Mean / % Compound Remaining, Rep. 1-3: 100 μg/mL
Method: Gastrointestinal solution stability was performed along with the Caco-2 cell permeability assay study.

in vitro [3] = settings: human
Excerpt: (§2) Based on historical data obtained in the experimental model, the mean permeability value (Papp) for each reference compound was expected to fall within the predetermined specifications.
(§3) Fluorescein was used as the zero-permeability marker in all Caco-2 cell assays as a quality control for the integrity of the Caco-2 monolayer. […] Well-defined criteria (known or readily available to those of ordinary skill in the art) have been established for the acceptance of fluorescein results to validate monolayer integrity.
(§4) Testing concentrations for the in vitro permeability assessment were determined at 1%, 10%, and 100% of the highest strength dissolved in 250 mL. […]

Caco-2 monolayer = test: in vitro
Excerpt: as §2, §3, §4

[4] = Equilibrium solubility study; settings: for solubility thermodynamic: 37 °C, thermodynamic from solid, Equilibrium solubility
[5] = Caco-2, Percent Recovery, Mean, B-A, 10 μM
[6] = Caco-2, Percent Recovery, Rep. 1-3, A-B, 10 μM
[7] = Caco-2, Percent Recovery, Rep. 1-3, B-A, 10 μM
[8] = Caco-2, pH 6.5, Permeability, Mean
[9] = Caco-2, pH 6.5, Permeability, Rep. 1-3
[10] = Caco-2, Percent Recovery, Mean, A-B, 10 μM
[11] = Caco-2, pH 6.5, Permeability, Mean, A-B, Caco-2, pH 6.5/7.4, 10 μM
[12] = Caco-2, pH 6.5, Permeability, Rep. 1-3, A-B, Caco-2, pH 6.5/7.4, 10 μM
[13] = Caco-2, pH 6.5, Permeability, Rep. 1-3, B-A, Caco-2, pH 6.5/7.4, 10 μM
[14] = simulated gastric fluid, 0 minutes
[15] = simulated gastric fluid, 60 minutes
[16] = simulated intestinal fluid, 0 minutes
[17] = simulated intestinal fluid, 180 minutes
[18] = Caco-2, pH 6.5, Permeability, Mean (SD)

Chain of hERG (human ether-a-go-go-related gene) channel current (Q12809 whole entry): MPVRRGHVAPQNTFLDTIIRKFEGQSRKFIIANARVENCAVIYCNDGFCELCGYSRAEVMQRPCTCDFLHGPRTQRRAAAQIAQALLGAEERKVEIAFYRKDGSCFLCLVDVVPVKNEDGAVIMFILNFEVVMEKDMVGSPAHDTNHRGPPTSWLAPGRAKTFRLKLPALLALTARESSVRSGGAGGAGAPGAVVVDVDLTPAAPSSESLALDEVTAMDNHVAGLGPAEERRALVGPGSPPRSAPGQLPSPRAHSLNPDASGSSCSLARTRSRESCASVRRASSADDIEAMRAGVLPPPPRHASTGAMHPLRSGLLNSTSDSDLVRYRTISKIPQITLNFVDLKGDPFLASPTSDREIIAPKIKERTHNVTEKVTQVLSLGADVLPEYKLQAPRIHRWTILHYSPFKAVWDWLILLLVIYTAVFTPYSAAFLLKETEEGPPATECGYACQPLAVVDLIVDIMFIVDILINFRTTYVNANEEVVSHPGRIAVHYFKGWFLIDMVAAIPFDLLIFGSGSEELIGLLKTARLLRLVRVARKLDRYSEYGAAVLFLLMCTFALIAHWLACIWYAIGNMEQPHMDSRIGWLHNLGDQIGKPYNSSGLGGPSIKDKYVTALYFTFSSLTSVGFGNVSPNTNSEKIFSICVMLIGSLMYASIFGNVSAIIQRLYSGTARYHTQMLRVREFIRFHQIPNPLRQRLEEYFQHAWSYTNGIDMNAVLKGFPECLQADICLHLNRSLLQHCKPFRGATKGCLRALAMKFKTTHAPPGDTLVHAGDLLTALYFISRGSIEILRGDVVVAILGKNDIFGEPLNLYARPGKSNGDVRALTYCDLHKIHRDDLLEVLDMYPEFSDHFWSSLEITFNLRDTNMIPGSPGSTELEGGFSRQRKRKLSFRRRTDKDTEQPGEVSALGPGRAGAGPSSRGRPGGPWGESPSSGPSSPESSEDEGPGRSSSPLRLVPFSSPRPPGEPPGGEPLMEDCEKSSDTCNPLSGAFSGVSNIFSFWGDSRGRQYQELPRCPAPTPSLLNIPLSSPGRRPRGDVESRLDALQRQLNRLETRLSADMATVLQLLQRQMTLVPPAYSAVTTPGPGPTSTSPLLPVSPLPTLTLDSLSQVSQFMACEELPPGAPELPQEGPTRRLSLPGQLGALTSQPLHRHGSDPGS
Chain of hERG (Q12809 whole entry): as above

Structure (SMILES): CCC(=O)C(CC(C)N(C)C)(c1ccccc1)c1ccccc1 (racemic) [racemic methadone]
- IC50 (hERG): 1000 nM
- inhibition at 0.3 µM (hERG; 0.3 μM, read-out: Inhibition of hERG current (Mean, SEM; n=4)): 33.4%
- inhibition at 1 µM (hERG; 1 uM, read-out: Inhibition of hERG current (Mean, SEM; n=4)): 43.6%
- inhibition at 10 µM (hERG; 10 μM, read-out: Inhibition of hERG current (Mean, SEM; n=4)): 86.9%
- inhibition at 3 μM (hERG; 3 AM, read-out: Inhibition of hERG current (Mean, SEM; n=4)): 71.1%
- Hill coefficient [1]: 0.743

Structure (SMILES): O=C(O)CCCc1ccc(N(CCCl)CCCl)cc1 [Chlorambucil, reference compound]
- half-life at 10 μM (in vitro [2]; Mean, simulated intestinal fluid): 26 min
- half-life at 10 μM (in vitro [2]; Rep. 1-3, simulated intestinal fluid): 26.2 min
- Half-Life, Rep. 1-3 (in vitro [2]; simulated intestinal fluid): 25.7 min

Structure (SMILES): COc1cc2c(c(OC)c1OC)-c1ccc(OC)c(=O)cc1[C@@H](NC(C)=O)CC2 [Colchicine]
- recovery (in vitro [3]; [5]): 91%
- recovery (in vitro [3]; [6]): 88%
- recovery (in vitro [3]; [7]): 88%
- Papp A→B (in vitro [3]; [8]): 0.3 ×10⁻⁶ cm/s
- Papp B→A (in vitro [3]; [8]): 7.3 ×10⁻⁶ cm/s
- Papp A→B (in vitro [3]; [9]): 0.31 ×10⁻⁶ cm/s
- Papp B→A (in vitro [3]; [9]): 7.69 ×10⁻⁶ cm/s
- Percent Recovery, Rep. 1-3 (Caco-2 monolayer; A-B, 10 μM): 78%
- Percent Recovery, Rep. 1-3 (Caco-2 monolayer; B-A, 10 μM): 94%

Structure (SMILES): CC[C@H]1OC(=O)[C@H](C)[C@@H](O[C@H]2C[C@@](C)(OC)[C@@H](O)[C@H](C)O2)[C@H](C)[C@@H](O[C@@H]2O[C@H](C)C[C@H](N(C)C)[C@H]2O)[C@](C)(O)C[C@@H](C)C(=O)[C@H](C)[C@@H](O)[C@]1(C)O [Erythromycin, reference compound]
- Half-Life, Rep. 1-3 (in vitro [2]; simulated gastric fluid): 6.5 min
- half-life (in vitro [2]; Mean, simulated gastric fluid): 6 min
- half-life (in vitro [2]; Rep. 1-3, simulated gastric fluid): 6.4 min

Structure (SMILES): CC(CCc1ccccc1)NCC(O)c1ccc(O)c(C(N)=O)c1 (stereo not drawn) [Labetalol]
- recovery (in vitro [3]; [10]): 117%
- recovery (in vitro [3]; [6]): 118%
- Papp A→B (in vitro [3]; [11]): 19.6 ×10⁻⁶ cm/s
- Papp B→A (in vitro [3]; Caco-2, pH 6.5, Permeability, Mean, B-A, Caco-2, pH 6.5/7.4, 10 μM): 49.3 ×10⁻⁶ cm/s
- Papp A→B (in vitro [3]; [12]): 20.2 ×10⁻⁶ cm/s
- Papp B→A (in vitro [3]; [13]): 48.7 ×10⁻⁶ cm/s

Structure (SMILES): CC(C)[N+](C)(CCOC(=O)C1c2ccccc2Oc2ccccc21)C(C)C [Propanthaline, reference compound]
- Half-Life, Mean (in vitro [2]; simulated gastric fluid): >60 min
- Half-Life, Rep. 1-3 (in vitro [2]; simulated gastric fluid): >60 min
- Half-Life, Mean (in vitro [2]; simulated intestinal fluid): >180 min
- Half-Life, Rep. 1-3 (in vitro [2]; simulated intestinal fluid): 253.1 min and 251.2 min and 227.0 min

Structure (SMILES): CC(C)NCC(O)COc1cccc2ccccc12 (stereo not drawn) [Propranolol]
- recovery (in vitro [3]; [10]): 104%
- recovery (in vitro [3]; [5]): 108%
- recovery (in vitro [3]; [6]): 106%
- recovery (in vitro [3]; [7]): 106%
- Papp B→A (in vitro [3]; [8]): 47.5 ×10⁻⁶ cm/s
- Papp A→B (in vitro [3]; [11]): 40.9 ×10⁻⁶ cm/s
- Papp B→A (in vitro [3]; [9]): 48.1 ×10⁻⁶ cm/s
- Papp A→B (in vitro [3]; [12]): 45.4 ×10⁻⁶ cm/s
- Papp B→A at 10 μM (in vitro [3]; [13]): 48.8 ×10⁻⁶ cm/s
- Percent Recovery, Rep. 1-3 (Caco-2 monolayer; A-B, 10 μM): 99%
- Permeability, Rep. 1-3 (Caco-2 monolayer; A-B, Caco-2, pH 6.5/7.4, 10 μM): 40.35 10^−6 cm/s and 36.94 10^−6 cm/s
- Percent Recovery, Rep. 1-3 (Caco-2 monolayer; B-A, 10 μM): 115% and 102%
- Permeability, Rep. 1-3 (Caco-2 monolayer; human, Caco-2, pH 6.5): 45.79 10^−6 cm/s

Structure (SMILES): CNC(=C[N+](=O)[O-])NCCSCc1ccc(CN(C)C)o1 [Ranitidine]
- recovery (in vitro [3]; [10]): 101%
- recovery (in vitro [3]; [6]): 100%
- Papp A→B (in vitro [3]; [8]): 0.7 ×10⁻⁶ cm/s
- Papp B→A (in vitro [3]; [8]): 2.4 ×10⁻⁶ cm/s
- Papp A→B (in vitro [3]; [9]): 0.8 ×10⁻⁶ cm/s
- Papp B→A (in vitro [3]; [9]): 2.54 ×10⁻⁶ cm/s
- Percent Recovery, Rep. 1-3 (Caco-2 monolayer; A-B, 10 μM): 99%
- Percent Recovery, Rep. 1-3 (Caco-2 monolayer; B-A, 10 μM): 96% and 92%

Structure (SMILES): CCC(=O)C(C[C@H](C)N(C)C)(c1ccccc1)c1ccccc1 [esmethadone HCl]
- % Compound Remaining, Mean (in vitro [2]; [14]): 100 % remaining
- % Compound Remaining, Rep. 1-3 (in vitro [2]; [14]): 100.0 % remaining
- % Compound Remaining, Mean (in vitro [2]; [15]): 109 % remaining
- % Compound Remaining, Rep. 1-3 (in vitro [2]; [15]): 110.2 % remaining and 127.3 % remaining and 90.0 % remaining
- % Compound Remaining, Mean (in vitro [2]; [16]): 100 % remaining
- % Compound Remaining, Rep. 1-3 (in vitro [2]; [16]): 100.0 % remaining
- % Compound Remaining, Mean (in vitro [2]; [17]): 97 % remaining
- % Compound Remaining, Rep. 1-3 (in vitro [2]; [17]): 89.6 % remaining and 96.6 % remaining and 105.9 % remaining
- solubility thermodynamic ([4]; pH 1.2, simulated gastric fluid, Mean, pH 1.2, 37° C.): 58.8 mg/mL
- solubility thermodynamic ([4]; pH 1.2, simulated gastric fluid, replicates, pH 1.2, 37° C., individual replicates): 62.1 mg/mL
- solubility thermodynamic ([4]; pH 4.5, aqueous buffer, Mean, pH 4.5, 37° C.): 66.9 mg/mL
- solubility thermodynamic ([4]; pH 4.5, aqueous buffer, replicates, pH 4.5, 37° C., individual replicates): 67 mg/mL
- solubility thermodynamic ([4]; pH 6.8, aqueous buffer, Mean, pH 6.8, 37° C.): 3.2 mg/mL
- solubility thermodynamic ([4]; pH 6.8, aqueous buffer, replicates, pH 6.8, 37° C., individual replicates): 3.1 mg/mL
- Stability of the drug substance in each buffer ([4]; over the total time of the solubility study): ≤ 10%
- Equilibrium solubility, replicates ([4]; pH 1.2, 37° C., individual replicates): 60.0 mg/mL and 54.2 mg/mL
- Equilibrium solubility, replicates ([4]; pH 4.5, 37° C., individual replicates): 66.7 mg/mL and 66.8 mg/mL
- Equilibrium solubility, replicates ([4]; pH 6.8, 37° C., individual replicates): 3.2 mg/mL
- recovery (in vitro [3]; Caco-2, Mean recovery values, across the assays): 51 to 74%
- recovery (in vitro [3]; Caco-2, Percent Recovery, Mean (SD), A-B, 1 μg/mL): 51%
- recovery (in vitro [3]; Caco-2, Percent Recovery, Mean (SD), A-B, 10 μg/mL): 57%
- recovery (in vitro [3]; Caco-2, Percent Recovery, Mean (SD), A-B, 100 μg/mL): 61%
- recovery (in vitro [3]; Caco-2, Percent Recovery, Mean (SD), B-A, 1 μg/mL): 60%
- recovery (in vitro [3]; Caco-2, Percent Recovery, Mean (SD), B-A, 10 μg/mL): 74%
- recovery (in vitro [3]; Caco-2, Percent Recovery, Mean (SD), B-A, 100 μg/mL): 74%
- recovery (in vitro [3]; Caco-2, Percent Recovery, Rep. 1-3, A-B, 1 μg/mL): 53%
- recovery (in vitro [3]; Caco-2, Percent Recovery, Rep. 1-3, A-B, 10 μg/mL): 57%
- recovery (in vitro [3]; Caco-2, Percent Recovery, Rep. 1-3, A-B, 100 μg/mL): 64%
- recovery (in vitro [3]; Caco-2, Percent Recovery, Rep. 1-3, B-A, 1 μg/mL): 65%
- recovery (in vitro [3]; Caco-2, Percent Recovery, Rep. 1-3, B-A, 10 μg/mL): 67%
- recovery (in vitro [3]; Caco-2, Percent Recovery, Rep. 1-3, B-A, 100 μg/mL): 74%
- Papp A→B (in vitro [3]; [18]): 16.3 ×10⁻⁶ cm/s
- Papp B→A (in vitro [3]; [18]): 28.6 ×10⁻⁶ cm/s
- Papp A→B (in vitro [3]; [9]): 21 ×10⁻⁶ cm/s
- Papp B→A (in vitro [3]; [9]): 29.4 ×10⁻⁶ cm/s
- Percent Recovery, Rep. 1-3 (Caco-2 monolayer; A-B, 10 μg/mL): 54%
- Percent Recovery, Rep. 1-3 (Caco-2 monolayer; A-B, 100 μg/mL): 56%
- Percent Recovery, Rep. 1-3 (Caco-2 monolayer; B-A, 1 μg/mL): 58% and 59%
- Percent Recovery, Rep. 1-3 (Caco-2 monolayer; B-A, 10 μg/mL): 82%
- Percent Recovery, Rep. 1-3 (Caco-2 monolayer; B-A, 100 μg/mL): 82% and 68%
- Permeability category (Caco-2 monolayer; Caco-2): high permeability

Structure (SMILES): CCC(=O)C(C[C@@H](C)N(C)C)(c1ccccc1)c1ccccc1 [levomethadone]
- inhibition at 0.366 µM (hERG; 0.366 μM (n=5), 35-37° C., read-out: Inhibition of hERG current (Mean±SEM)): 36 ± 4.9%
- inhibition at 1.13 µM (hERG; 1.13 μM (n=4), read-out: Inhibition of hERG current (Mean±SEM)): 54.3 ± 6.7%
- inhibition at 3.32 µM (hERG; 3.32 μM (n=4), read-out: Inhibition of hERG current (Mean±SEM)): 73.6 ± 1.5%
- inhibition at 11.2 µM (hERG; 11.2 μM, read-out: Inhibition of hERG current (Mean±SEM)): 90 ± 0.5%
- IC50 [1]: 828 nM
- Hill coefficient [1]: 0.764
